According to ChEMBL document CHEMBL5715954, “Silencing c-Myc translation as a therapeutic strategy through targeting PI3Kδ and CK1ε in hematological malignancies” (Blood, 2017):

Legend:
Design in all cases: scale not given: the % may be the effect or the level left
[1] = target: LIM domain kinase 2 (Homo sapiens) (UniProt P53671); assay: Inhibition of human LIMK2 assessed as enzyme activity at 1 uM using cofilin 2 as substrate preincubated for 20 mins followed by [gamma-33P]-ATP addition and measured after 120 mins by radiometric Hot-SpotSM Kinase assay relative to control
Chain of LIM domain kinase 2 (Homo sapiens) (P53671 whole entry, looked up, the tested form may be a part): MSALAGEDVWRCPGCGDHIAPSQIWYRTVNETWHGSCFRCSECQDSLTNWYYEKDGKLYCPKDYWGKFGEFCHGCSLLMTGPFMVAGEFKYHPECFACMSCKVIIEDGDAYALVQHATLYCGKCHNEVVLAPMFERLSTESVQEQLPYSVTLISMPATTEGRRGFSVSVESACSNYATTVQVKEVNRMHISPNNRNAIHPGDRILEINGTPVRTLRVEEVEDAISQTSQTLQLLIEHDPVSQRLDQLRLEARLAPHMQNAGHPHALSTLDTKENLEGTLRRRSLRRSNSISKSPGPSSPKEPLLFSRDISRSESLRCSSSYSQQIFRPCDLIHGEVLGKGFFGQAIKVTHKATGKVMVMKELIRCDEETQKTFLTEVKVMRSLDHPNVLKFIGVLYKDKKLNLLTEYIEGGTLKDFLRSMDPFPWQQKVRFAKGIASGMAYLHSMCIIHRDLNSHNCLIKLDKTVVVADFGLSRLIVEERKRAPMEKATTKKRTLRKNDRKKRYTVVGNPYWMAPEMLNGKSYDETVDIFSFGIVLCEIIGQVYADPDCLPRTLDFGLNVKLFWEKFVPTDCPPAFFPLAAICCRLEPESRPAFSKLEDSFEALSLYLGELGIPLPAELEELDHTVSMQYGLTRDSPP

[2] = target: T1, NUAK family SNF1-like kinase 1 (Homo sapiens) (UniProt O60285); assay: Inhibition of human ARK5 assessed as enzyme activity at 1 uM using KKKVSRSGLYRSPSMPENLNRPR as substrate preincubated for 20 mins followed by [gamma-33P]-ATP addition and measured after 120 mins by radiometric Hot-SpotSM Kinase assay relative to control
T1 sequence (whole entry): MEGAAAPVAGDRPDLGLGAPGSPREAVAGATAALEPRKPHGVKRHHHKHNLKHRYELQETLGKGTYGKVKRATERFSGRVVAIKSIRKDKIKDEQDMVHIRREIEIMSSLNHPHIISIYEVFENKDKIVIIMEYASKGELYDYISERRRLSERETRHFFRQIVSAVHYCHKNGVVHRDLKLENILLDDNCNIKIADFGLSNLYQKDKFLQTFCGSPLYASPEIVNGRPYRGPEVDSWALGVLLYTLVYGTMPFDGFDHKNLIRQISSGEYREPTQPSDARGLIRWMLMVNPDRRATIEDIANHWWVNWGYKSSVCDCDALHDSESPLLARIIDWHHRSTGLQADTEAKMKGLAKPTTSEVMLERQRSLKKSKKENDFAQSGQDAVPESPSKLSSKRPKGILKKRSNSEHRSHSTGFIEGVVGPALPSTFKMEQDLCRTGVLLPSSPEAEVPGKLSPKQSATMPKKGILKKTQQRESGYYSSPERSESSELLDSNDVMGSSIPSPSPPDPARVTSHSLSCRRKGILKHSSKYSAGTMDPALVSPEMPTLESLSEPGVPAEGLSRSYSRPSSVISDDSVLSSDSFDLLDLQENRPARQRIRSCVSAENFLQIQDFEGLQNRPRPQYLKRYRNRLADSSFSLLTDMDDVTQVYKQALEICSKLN

[3] = target: T2, Lymphokine-activated killer T-cell-originated protein kinase (Homo sapiens) (UniProt Q96KB5); assay: Inhibition of human PBK assessed as enzyme activity at 1 uM using myelin basic protein as substrate preincubated for 20 mins followed by [gamma-33P]-ATP addition and measured after 120 mins by radiometric Hot-SpotSM Kinase assay relative to control
T2 sequence (whole entry): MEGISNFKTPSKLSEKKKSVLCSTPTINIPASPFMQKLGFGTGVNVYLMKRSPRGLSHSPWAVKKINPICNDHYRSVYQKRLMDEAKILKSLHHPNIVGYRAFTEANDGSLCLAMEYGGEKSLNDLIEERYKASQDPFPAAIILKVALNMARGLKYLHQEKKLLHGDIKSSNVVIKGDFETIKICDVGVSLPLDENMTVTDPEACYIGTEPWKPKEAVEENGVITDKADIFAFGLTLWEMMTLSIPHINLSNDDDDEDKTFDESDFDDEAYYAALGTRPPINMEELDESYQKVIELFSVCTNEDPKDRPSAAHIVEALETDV

[4] = target: Serine/threonine-protein kinase 33 (Homo sapiens) (UniProt Q9BYT3); assay: Inhibition of human STK33 assessed as enzyme activity at 1 uM using myelin basic protein as substrate preincubated for 20 mins followed by [gamma-33P]-ATP addition and measured after 120 mins by radiometric Hot-SpotSM Kinase assay relative to control
Chain of Serine/threonine-protein kinase 33 (Homo sapiens) (Q9BYT3 whole entry, looked up): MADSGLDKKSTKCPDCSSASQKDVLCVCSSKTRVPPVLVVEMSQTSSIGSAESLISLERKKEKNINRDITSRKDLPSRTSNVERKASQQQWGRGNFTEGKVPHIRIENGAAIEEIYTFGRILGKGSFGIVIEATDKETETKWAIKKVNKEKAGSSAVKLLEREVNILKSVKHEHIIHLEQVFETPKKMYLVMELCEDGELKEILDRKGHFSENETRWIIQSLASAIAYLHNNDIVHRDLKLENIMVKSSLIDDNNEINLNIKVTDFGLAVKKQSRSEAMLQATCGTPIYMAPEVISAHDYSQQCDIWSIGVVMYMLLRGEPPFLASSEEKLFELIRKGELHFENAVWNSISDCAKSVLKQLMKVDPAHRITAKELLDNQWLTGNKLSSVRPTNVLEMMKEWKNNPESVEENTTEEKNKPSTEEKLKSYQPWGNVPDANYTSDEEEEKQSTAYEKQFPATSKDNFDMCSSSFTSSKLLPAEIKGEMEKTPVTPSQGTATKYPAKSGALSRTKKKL

[5] = target: Serine/threonine-protein kinase MRCK gamma (Homo sapiens) (UniProt Q6DT37); assay: Inhibition of human DMPK2 assessed as enzyme activity at 1 uM using KKRPQRRYSNVF as substrate preincubated for 20 mins followed by [gamma-33P]-ATP addition and measured after 120 mins by radiometric Hot-SpotSM Kinase assay relative to control
Chain of Serine/threonine-protein kinase MRCK gamma (Homo sapiens) (Q6DT37 whole entry): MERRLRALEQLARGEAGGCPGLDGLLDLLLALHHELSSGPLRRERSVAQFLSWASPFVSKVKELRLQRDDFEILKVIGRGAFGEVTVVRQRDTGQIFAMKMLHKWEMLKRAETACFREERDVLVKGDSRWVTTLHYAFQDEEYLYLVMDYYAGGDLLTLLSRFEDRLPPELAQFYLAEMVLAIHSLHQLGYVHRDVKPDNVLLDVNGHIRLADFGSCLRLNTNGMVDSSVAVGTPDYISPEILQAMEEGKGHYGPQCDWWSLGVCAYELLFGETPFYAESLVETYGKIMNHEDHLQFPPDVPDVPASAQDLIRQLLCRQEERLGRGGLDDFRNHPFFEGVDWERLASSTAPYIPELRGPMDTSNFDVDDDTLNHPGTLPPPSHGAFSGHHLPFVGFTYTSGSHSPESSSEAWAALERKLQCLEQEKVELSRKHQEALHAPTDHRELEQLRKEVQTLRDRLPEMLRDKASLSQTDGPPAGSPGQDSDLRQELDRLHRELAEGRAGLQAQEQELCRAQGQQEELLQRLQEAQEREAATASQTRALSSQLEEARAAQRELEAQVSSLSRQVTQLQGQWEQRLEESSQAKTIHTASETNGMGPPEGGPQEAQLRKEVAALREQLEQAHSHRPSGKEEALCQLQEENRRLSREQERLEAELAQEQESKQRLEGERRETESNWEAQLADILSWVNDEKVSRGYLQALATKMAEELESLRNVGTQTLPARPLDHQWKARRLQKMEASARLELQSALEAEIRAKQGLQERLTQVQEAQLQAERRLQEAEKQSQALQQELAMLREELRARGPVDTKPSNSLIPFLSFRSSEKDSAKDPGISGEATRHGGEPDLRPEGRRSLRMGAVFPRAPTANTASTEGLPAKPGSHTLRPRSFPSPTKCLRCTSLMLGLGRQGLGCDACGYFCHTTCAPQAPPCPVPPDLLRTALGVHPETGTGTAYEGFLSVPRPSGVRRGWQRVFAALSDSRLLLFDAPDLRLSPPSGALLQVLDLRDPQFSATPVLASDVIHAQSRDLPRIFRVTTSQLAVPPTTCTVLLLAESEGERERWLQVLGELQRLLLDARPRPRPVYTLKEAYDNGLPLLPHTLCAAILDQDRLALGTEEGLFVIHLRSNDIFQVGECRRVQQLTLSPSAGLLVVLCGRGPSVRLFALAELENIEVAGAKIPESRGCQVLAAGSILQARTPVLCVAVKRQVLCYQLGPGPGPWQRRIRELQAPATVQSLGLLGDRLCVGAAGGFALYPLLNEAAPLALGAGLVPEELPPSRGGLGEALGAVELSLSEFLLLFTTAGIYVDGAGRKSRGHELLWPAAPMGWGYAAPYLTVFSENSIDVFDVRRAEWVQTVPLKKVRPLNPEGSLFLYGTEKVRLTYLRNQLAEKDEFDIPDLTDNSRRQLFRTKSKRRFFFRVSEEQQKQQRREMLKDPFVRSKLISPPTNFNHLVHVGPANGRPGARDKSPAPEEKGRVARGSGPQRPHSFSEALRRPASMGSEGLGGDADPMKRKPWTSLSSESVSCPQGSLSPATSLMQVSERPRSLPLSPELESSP

[6] = target: Mitogen-activated protein kinase kinase kinase kinase 4 (Homo sapiens) (UniProt O95819); assay: Inhibition of human HGK assessed as enzyme activity at 1 uM using myelin basic protein as substrate preincubated for 20 mins followed by [gamma-33P]-ATP addition and measured after 120 mins by radiometric Hot-SpotSM Kinase assay relative to control
Chain of Mitogen-activated protein kinase kinase kinase kinase 4 (Homo sapiens) (O95819 2-1239 limits assumed): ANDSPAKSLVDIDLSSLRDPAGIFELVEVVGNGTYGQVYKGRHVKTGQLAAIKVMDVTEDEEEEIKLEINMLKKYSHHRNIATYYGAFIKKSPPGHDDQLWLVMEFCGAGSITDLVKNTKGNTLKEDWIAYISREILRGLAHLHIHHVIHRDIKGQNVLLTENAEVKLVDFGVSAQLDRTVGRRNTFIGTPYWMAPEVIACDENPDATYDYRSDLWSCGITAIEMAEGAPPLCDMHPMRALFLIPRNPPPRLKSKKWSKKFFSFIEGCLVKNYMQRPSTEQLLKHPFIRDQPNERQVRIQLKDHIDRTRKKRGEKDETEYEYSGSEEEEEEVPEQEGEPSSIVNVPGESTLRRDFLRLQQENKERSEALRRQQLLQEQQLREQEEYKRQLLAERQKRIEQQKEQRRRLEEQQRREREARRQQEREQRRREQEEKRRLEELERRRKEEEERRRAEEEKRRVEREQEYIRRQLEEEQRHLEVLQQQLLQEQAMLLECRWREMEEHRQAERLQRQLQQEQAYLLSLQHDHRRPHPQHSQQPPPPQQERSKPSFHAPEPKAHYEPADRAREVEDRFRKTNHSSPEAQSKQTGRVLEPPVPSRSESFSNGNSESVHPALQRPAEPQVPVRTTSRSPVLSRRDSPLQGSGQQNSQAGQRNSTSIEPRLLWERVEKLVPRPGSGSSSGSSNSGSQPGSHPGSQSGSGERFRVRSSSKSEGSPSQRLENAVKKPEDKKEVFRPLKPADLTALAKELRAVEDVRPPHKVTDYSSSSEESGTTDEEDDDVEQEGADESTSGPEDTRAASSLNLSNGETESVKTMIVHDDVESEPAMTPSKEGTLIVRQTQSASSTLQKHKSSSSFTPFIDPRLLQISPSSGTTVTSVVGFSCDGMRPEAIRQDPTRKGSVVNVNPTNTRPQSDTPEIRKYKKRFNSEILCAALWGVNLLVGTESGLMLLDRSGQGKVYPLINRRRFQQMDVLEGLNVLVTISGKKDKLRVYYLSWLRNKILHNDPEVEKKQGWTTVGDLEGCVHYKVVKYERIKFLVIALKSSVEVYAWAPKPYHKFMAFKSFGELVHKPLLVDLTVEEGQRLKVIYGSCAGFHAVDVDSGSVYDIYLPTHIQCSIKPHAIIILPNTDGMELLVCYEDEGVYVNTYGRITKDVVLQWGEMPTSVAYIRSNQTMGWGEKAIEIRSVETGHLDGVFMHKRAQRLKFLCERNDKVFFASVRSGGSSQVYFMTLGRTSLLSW

[7] = target: Cyclin-Y/Cyclin-dependent kinase 16 (Homo sapiens) (UniProt Q00536+Q8ND76); assay: Inhibition of human CDK16/cyclin Y assessed as enzyme activity at 1 uM using RB Protein as substrate preincubated for 20 mins followed by [gamma-33P]-ATP addition and measured after 120 mins by radiometric Hot-SpotSM Kinase assay relative to control; assay type: protein-complex assay
[8] = target: Serine/threonine-protein kinase PLK1 (Homo sapiens) (UniProt P53350); assay: Inhibition of human PLK1 assessed as enzyme activity at 1 uM using casein as substrate preincubated for 20 mins followed by [gamma-33P]-ATP addition and measured after 120 mins by radiometric Hot-SpotSM Kinase assay relative to control
Chain of Serine/threonine-protein kinase PLK1 (Homo sapiens) (P53350 whole entry): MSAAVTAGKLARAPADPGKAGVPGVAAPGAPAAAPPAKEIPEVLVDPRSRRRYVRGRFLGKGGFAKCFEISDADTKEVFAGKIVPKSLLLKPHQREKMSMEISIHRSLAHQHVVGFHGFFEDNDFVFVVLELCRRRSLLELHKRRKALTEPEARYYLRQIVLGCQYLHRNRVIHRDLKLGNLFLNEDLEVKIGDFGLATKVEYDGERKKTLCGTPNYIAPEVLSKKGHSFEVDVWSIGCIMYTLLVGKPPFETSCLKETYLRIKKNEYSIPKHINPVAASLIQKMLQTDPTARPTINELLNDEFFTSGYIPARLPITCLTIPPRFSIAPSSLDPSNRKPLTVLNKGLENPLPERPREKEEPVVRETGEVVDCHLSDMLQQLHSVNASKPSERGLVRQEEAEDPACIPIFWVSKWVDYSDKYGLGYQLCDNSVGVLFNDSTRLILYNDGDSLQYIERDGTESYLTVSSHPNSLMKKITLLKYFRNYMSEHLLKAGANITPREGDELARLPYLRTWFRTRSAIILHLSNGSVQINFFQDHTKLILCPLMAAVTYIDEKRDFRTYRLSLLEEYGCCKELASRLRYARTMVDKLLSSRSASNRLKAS

| SMILES | Activity [1] [%] | Activity [2] [%] | Activity [3] [%] | Activity [4] [%] | Activity [5] [%] | Activity [6] [%] | Activity [7] [%] | Activity [8] [%] |
| --- | --- | --- | --- | --- | --- | --- | --- | --- |
| CC[C@H](Nc1ncnc2[nH]cnc12)c1nc2cccc(F)c2c(=O)n1-c1ccccc1 | 96 | 102 | 105 | 101 | 97.4 | 93 | 96.5 | 95.4 |
| C[C@H](Nc1ncnc2nc[nH]c12)c1cc2cccc(Cl)c2c(=O)n1-c1ccccc1 | 104 | 95 | 102 | 101 | 102 | 97.1 | 97.7 | 94 |
| CC(C)Oc1ccc(-c2nn([C@@H](C)c3oc4ccc(F)cc4c(=O)c3-c3cccc(F)c3)c3ncnc(N)c23)cc1F [UMBRALISIB] | 98.6 | 97.8 | 105 | 106 | 104 | 97.1 | 98.5 | 98.4 |
